Target: T1, human PAH with the R408W mutation (A375 R408W cells) (Homo sapiens, UniProt P00439, R408W)
T1 construct: expressed in transfected cells
T1 sequence (P00439 1-452 R408W): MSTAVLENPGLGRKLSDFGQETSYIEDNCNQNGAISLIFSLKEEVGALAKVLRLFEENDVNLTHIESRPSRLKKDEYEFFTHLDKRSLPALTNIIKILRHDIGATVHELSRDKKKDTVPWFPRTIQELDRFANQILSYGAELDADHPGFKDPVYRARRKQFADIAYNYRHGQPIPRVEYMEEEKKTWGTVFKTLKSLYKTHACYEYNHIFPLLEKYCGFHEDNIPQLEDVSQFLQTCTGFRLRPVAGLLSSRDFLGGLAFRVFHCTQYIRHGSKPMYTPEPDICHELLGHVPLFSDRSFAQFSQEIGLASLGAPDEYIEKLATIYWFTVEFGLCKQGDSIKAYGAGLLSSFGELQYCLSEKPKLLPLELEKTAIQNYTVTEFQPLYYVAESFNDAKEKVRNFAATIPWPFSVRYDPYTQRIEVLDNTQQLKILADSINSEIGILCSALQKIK
Experiment: Cell Based Phenylalanine Flux Assay
Settings: A375 R408W cells; 24 hrs with compound, then 20 μM sepiapterin and 800 μM 13C9,15N-Phenylalanine for 4 hours; 13C-Tyrosine by LC-MS; average where tested multiple times
How it was run: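 Stable R408W PAH A375 cells: 24 h compound pretreatment in duplicate, then 4 h with 800 μM isotope-labelled Phe and 20 μM sepiapterin. Labelled Tyr output by LC-MS; AC50 averaged where repeated.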

SMILES | AC50
O=C(c1ccnn1C(F)F)N1CCc2[nH]cnc2[C@H]1c1nc2c(F)cc(F)cc2o1 [Example 489, (S)-(4-(4,6-difluorobenzo[d]oxazol-2-yl)-6,7-dihydro-1H-imidazo[4,5-c]pyridin-5(4H)-yl)(1-(difluoromethyl)-1H-pyrazol-5-yl)methanone] | 500 to 1000 nM
COc1cccc2nc([C@H]3c4nc[nH]c4CCN3C(=O)c3nc(C(F)(F)F)nn3C)oc12 [Example 698, (R)-(4-(7-methoxybenzo[d]oxazol-2-yl)-6,7-dihydro-1H-imidazo[4,5-c]pyridin-5(4H)-yl)(1-methyl-3-(trifluoromethyl)-1H-1,2,4-triazol-5-yl)methanone] | 1000 to 5000 nM
O=C(c1ccnn1C(F)F)N1CCc2[nH]cnc2[C@@H]1c1nc2c(F)ccc(F)c2o1 [Example 488, (R)-(4-(4,7-difluorobenzo[d]oxazol-2-yl)-6,7-dihydro-1H-imidazo[4,5-c]pyridin-5(4H)-yl)(1-(difluoromethyl)-1H-pyrazol-5-yl)methanone] | 1000 to 5000 nM
O=C(c1oc(N2CCOCC2)nc1C(F)F)N1CCc2[nH]cnc2[C@H]1c1nc2cccc(F)c2o1 [Example 648, (S)-(4-(difluoromethyl)-2-morpholinooxazol-5-yl)(4-(7-fluorobenzo[d]oxazol-2-yl)-6,7-dihydro-1H-imidazo[4,5-c]pyridin-5(4H)-yl)methanone] | ≤ 500 nM
O=C(c1cnn2cc(N3CCC(O)CC3)ccc12)N1CCc2[nH]cnc2[C@@H]1c1nc2cccc(F)c2o1 [Example 372, (R)-(4-(7-fluorobenzo[d]oxazol-2-yl)-6,7-dihydro-1H-imidazo[4,5-c]pyridin-5(4H)-yl)(6-(4-hydroxypiperidin-1-yl)pyrazolo[1,5-a]pyridin-3-yl)methanone] | 1000 to 5000 nM
O=C(c1cnn2cc(N3CCOCC3)ccc12)N1CCc2[nH]cnc2[C@H]1c1nc2c(F)cccc2o1 [Example 504, (S)-(4-(4-fluorobenzo[d]oxazol-2-yl)-6,7-dihydro-1H-imidazo[4,5-c]pyridin-5(4H)-yl)(6-morpholinopyrazolo[1,5-a]pyridin-3-yl)methanone] | 500 to 1000 nM
CN1CCN(c2ccc3c(C(=O)N4CCc5[nH]cnc5[C@@H]4c4nc5cc(F)ccc5o4)cnn3c2)CC1(C)C [Example 140, (R)-(4-(5-fluorobenzo[d]oxazol-2-yl)-6,7-dihydro-1H-imidazo[4,5-c]pyridin-5(4H)-yl)(6-(3,3,4-trimethylpiperazin-1-yl)pyrazolo[1,5-a]pyridin-3-yl)methanone] | ≥ 5000 nM
COc1cc(F)c2oc([C@@H]3c4nc[nH]c4CCN3C(=O)c3oc(C(C)(C)O)nc3C(F)F)nc2c1 [Example 643, (S)-(4-(difluoromethyl)-2-(2-hydroxypropan-2-yl)oxazol-5-yl)(4-(7-fluoro-5-methoxybenzo[d]oxazol-2-yl)-6,7-dihydro-1H-imidazo[4,5-c]pyridin-5(4H)-yl)methanone] | ≤ 500 nM
O=C(c1nnc(C2CC2)o1)N1CCc2[nH]cnc2[C@H]1c1nc2c(F)ccc(F)c2o1 [Example 855, (S)-(5-cyclopropyl-1,3,4-oxadiazol-2-yl)(4-(4,7-difluorobenzo[d]oxazol-2-yl)-6,7-dihydro-1H-imidazo[4,5-c]pyridin-5(4H)-yl)methanone] | ≤ 500 nM
CC(C)(O)c1nc(C(F)F)c(C(=O)N2CCc3[nH]cnc3[C@@H]2c2nc3c(F)cc(F)cc3o2)o1 [Example 300, (R)-(4-(4,6-difluorobenzo[d]oxazol-2-yl)-6,7-dihydro-1H-imidazo[4,5-c]pyridin-5(4H)-yl)(4-(difluoromethyl)-2-(2-hydroxypropan-2-yl)oxazol-5-yl)methanone] | 1000 to 5000 nM
Cn1cc(-c2nc(C(F)(F)F)c(C(=O)N3CCc4[nH]cnc4[C@@H]3c3nc4cccc(F)c4o3)o2)cn1 [Example 670, (R)-(4-(7-fluorobenzo[d]oxazol-2-yl)-6,7-dihydro-1H-imidazo[4,5-c]pyridin-5(4H)-yl)(2-(1-methyl-1H-pyrazol-4-yl)-4-(trifluoromethyl)oxazol-5-yl)methanone] | ≤ 500 nM

Continued, values first:

AC50 | SMILES
≤ 500 nM | O=C(c1nnc(-c2ccn(C(F)F)n2)o1)N1CCc2[nH]cnc2[C@H]1c1nc2ccccc2o1 [Example 846, (S)-(4-(benzo[d]oxazol-2-yl)-6,7-dihydro-1H-imidazo[4,5-c]pyridin-5(4H)-yl)(5-(1-(difluoromethyl)-1H-pyrazol-3-yl)-1,3,4-oxadiazol-2-yl)methanone]
500 to 1000 nM | Cc1ccc(-c2nnc(C(=O)N3CCc4[nH]cnc4[C@H]3c3nc4cc(F)ccc4o3)o2)nc1 [Example 126, (S)-(4-(5-fluorobenzo[d]oxazol-2-yl)-6,7-dihydro-1H-imidazo[4,5-c]pyridin-5(4H)-yl)(5-(5-methylpyridin-2-yl)-1,3,4-oxadiazol-2-yl)methanone]
≤ 500 nM | O=C(c1ccnn1CC(F)F)N1CCc2[nH]cnc2[C@H]1c1nc2ccccc2o1 [Example 835, (S)-(4-(benzo[d]oxazol-2-yl)-6,7-dihydro-1H-imidazo[4,5-c]pyridin-5(4H)-yl)(1-(2,2-difluoroethyl)-1H-pyrazol-5-yl)methanone]
≤ 500 nM | CC(C)(O)c1nc(Br)c(C(=O)N2CCc3[nH]cnc3[C@H]2c2nc3cccc(F)c3o2)o1 [Example 263, (S)-(4-bromo-2-(2-hydroxypropan-2-yl)oxazol-5-yl)(4-(7-fluorobenzo[d]oxazol-2-yl)-6,7-dihydro-1H-imidazo[4,5-c]pyridin-5(4H)-yl)methanone]
≤ 500 nM | O=C(c1cnn2cc(-c3ccccn3)ccc12)N1CCc2[nH]cnc2[C@H]1c1nc2c(F)cccc2o1 [Example 543, (S)-(4-(4-fluorobenzo[d]oxazol-2-yl)-6,7-dihydro-1H-imidazo[4,5-c]pyridin-5(4H)-yl)(6-(pyridin-2-yl)pyrazolo[1,5-a]pyridin-3-yl)methanone]
1000 to 5000 nM | O=C(c1ccnn1CC(F)F)N1CCc2[nH]cnc2[C@H]1c1nc2c(F)cccc2o1 [Example 850, (S)-(1-(2,2-difluoroethyl)-1H-pyrazol-5-yl)(4-(4-fluorobenzo[d]oxazol-2-yl)-6,7-dihydro-1H-imidazo[4,5-c]pyridin-5(4H)-yl)methanone]
1000 to 5000 nM | O=C(c1oc(-c2ncccn2)nc1C(F)F)N1CCc2[nH]cnc2[C@@H]1c1nc2cc(F)ccc2o1 [Example 662, (R)-(4-(difluoromethyl)-2-(pyrimidin-2-yl)oxazol-5-yl)(4-(5-fluorobenzo[d]oxazol-2-yl)-6,7-dihydro-1H-imidazo[4,5-c]pyridin-5(4H)-yl)methanone]
≥ 5000 nM | O=C(c1cnco1)N1Cc2[nH]cnc2[C@H]1c1nc2ccccc2o1 (single isomer, unassigned) [Example 925]
≤ 500 nM | COc1cccc2nc([C@@H]3c4nc[nH]c4CCN3C(=O)c3ccnn3C)oc12 [Example 749, (S)-(4-(7-methoxybenzo[d]oxazol-2-yl)-6,7-dihydro-1H-imidazo[4,5-c]pyridin-5(4H)-yl)(1-methyl-1H-pyrazol-5-yl)methanone]
1000 to 5000 nM | Cc1ccc(-c2nnc(C(=O)N3CCc4[nH]cnc4[C@@H]3c3nc4cc(F)ccc4o3)o2)nc1 [Example 125, (R)-(4-(5-fluorobenzo[d]oxazol-2-yl)-6,7-dihydro-1H-imidazo[4,5-c]pyridin-5(4H)-yl)(5-(5-methylpyridin-2-yl)-1,3,4-oxadiazol-2-yl)methanone]
1000 to 5000 nM | CC(C)(O)c1nc(C(F)F)c(C(=O)N2CCc3[nH]cnc3[C@@H]2c2nc3ccccc3o2)o1 [Example 469, (R)-(4-(benzo[d]oxazol-2-yl)-6,7-dihydro-1H-imidazo[4,5-c]pyridin-5(4H)-yl)(4-(difluoromethyl)-2-(2-hydroxypropan-2-yl)oxazol-5-yl)methanone]

Same assay, conditions: A375 cells expressing R408W PAH; 24 hrs with compound, then 20 μM sepiapterin and 800 μM 13C9,15N-Phenylalanine for 4 hours; 13C-Tyrosine by LC-MS; average where tested multiple times

SMILES | AC50
O=C(c1cnn2cc(N3CCN(CC(F)(F)F)CC3)ccc12)N1CCc2[nH]cnc2C1c1nc2cc(F)ccc2o1 (stereo not shown) | ≥ 5000 nM
O=C(c1nnc(N2CCC(F)CC2)o1)N1CCc2[nH]cnc2C1c1nc2cc(F)ccc2o1 (stereo not shown) | 1000 to 5000 nM
CC(C)(C)OC(=O)N1CC(c2nnc(C(=O)N3CCc4[nH]cnc4C3c3nc4cc(F)ccc4o3)o2)C1 (stereo not shown) | 1000 to 5000 nM
CC(C)(O)c1ncc(C(=O)N2CCc3[nH]cnc3C2c2nc3cc(F)cc(F)c3o2)o1 (stereo not shown) | 1000 to 5000 nM
CN(C)Cc1nnc(C(=O)N2CCc3[nH]cnc3[C@@H]2c2nc3cc(F)ccc3o2)o1 (single isomer, unassigned) | ≥ 5000 nM
CC(C)(O)c1ncc(C(=O)N2CCc3[nH]cnc3C2c2nc3c(F)cc(F)cc3o2)o1 (stereo not shown) | 1000 to 5000 nM
O=C(c1cn[nH]c1)N1CCc2[nH]cnc2[C@H]1c1nc2cc(F)ccc2o1 (single isomer, unassigned) | ≥ 5000 nM

Next, values leading:

AC50 | SMILES
≥ 5000 nM | COCc1ccc2c(C(=O)N3CCc4[nH]cnc4C3c3nc4ccc(F)cc4o3)cnn2c1 (stereo not shown)
≥ 5000 nM | Cn1cnnc1C(=O)N1CCc2[nH]cnc2C1c1nc2ccc(F)cc2o1 (stereo not shown)
1000 to 5000 nM | Cc1ccc2nc(C3c4nc[nH]c4CCN3C(=O)c3ocnc3C#N)oc2c1 (stereo not shown)
≥ 5000 nM | O=C(CCc1nccs1)N1CCc2[nH]cnc2C1c1nc2ccc(F)cc2o1 (stereo not shown)
1000 to 5000 nM | Cn1cc(-c2ncc(C(=O)N3CCc4[nH]cnc4C3c3nc4cc(F)ccc4o3)o2)cn1 (stereo not shown)
